Source: ChEMBL document CHEMBL4184267, “Novel naftopidil derivatives containing methyl phenylacetate and their blocking effects on α1D/1A-adrenoreceptor subtypes” (Bioorg Med Chem Lett, 2018)

Legend:
[1] = system: Thoracic aorta; assay: Vasodilatory activity in New Zealand White rabbit thoracic aorta assessed as relaxation of (-)-noradrenaline-induced contractile response at 0.1 uM relative to untreated control; format: functional, Oryctolagus cuniculus; parameters: scale not given: the % may be the effect or the level left
[2] = system: Thoracic aorta; assay: Vasodilatory activity in New Zealand White rabbit thoracic aorta assessed as relaxation of (-)-noradrenaline-induced contractile response at 1 uM relative to untreated control; format: functional, Oryctolagus cuniculus; parameters: scale not given: the % may be the effect or the level left
[3] = system: Thoracic aorta; assay: Vasodilatory activity in New Zealand White rabbit thoracic aorta assessed as relaxation of (-)-noradrenaline-induced contractile response at 10 uM relative to untreated control; format: functional, Oryctolagus cuniculus; parameters: scale not given: the % may be the effect or the level left
[4] = biological target: T1, Alpha-1A adrenergic receptor (Rattus norvegicus, UniProt P43140); assay: Antagonist activity at alpha1A-adrenoreceptor in Sprague-Dawley rat vas deferens assessed as relaxation of (-)-noradrenaline-induced contractile response; format: functional; details: read-out: pA2 (converted)
T1 sequence (P43140 whole entry): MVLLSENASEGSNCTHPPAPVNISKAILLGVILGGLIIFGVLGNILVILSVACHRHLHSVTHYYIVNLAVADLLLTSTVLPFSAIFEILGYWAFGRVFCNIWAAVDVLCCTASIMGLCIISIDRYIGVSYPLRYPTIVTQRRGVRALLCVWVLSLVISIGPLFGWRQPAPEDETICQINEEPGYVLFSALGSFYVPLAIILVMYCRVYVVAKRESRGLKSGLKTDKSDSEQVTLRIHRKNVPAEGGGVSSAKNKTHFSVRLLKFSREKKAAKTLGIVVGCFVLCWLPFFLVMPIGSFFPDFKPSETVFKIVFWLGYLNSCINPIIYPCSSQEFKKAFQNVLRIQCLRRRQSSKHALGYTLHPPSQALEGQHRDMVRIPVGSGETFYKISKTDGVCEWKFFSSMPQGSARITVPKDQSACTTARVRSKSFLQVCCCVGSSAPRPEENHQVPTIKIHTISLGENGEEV

[5] = biological target: T2, Alpha-1B adrenergic receptor (Rattus norvegicus, UniProt P15823); assay: Antagonist activity at alpha1B-adrenoreceptor in Sprague-Dawley rat spleen assessed as relaxation of (-)-noradrenaline-induced contractile response; format: functional; details: read-out: pA2 (converted)
T2 sequence (P15823 whole entry): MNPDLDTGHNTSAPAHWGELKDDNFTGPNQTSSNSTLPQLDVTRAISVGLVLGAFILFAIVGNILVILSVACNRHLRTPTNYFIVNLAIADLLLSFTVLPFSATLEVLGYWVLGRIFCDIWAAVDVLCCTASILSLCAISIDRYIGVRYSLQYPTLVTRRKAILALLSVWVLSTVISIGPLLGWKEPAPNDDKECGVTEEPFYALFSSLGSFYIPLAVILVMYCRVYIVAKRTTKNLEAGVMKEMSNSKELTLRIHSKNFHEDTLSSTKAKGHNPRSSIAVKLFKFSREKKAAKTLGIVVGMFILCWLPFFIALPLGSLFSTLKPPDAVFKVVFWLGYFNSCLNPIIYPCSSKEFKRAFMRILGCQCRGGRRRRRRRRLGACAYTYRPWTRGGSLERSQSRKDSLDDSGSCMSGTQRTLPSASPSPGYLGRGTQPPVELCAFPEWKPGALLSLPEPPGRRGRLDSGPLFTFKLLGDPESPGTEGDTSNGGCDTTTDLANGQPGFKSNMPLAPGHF

[6] = biological target: T3, Alpha-1D adrenergic receptor (Rattus norvegicus, UniProt P23944); assay: Antagonist activity at alpha1D-adrenoreceptor in Sprague-Dawley rat thoracic aorta assessed as relaxation of (-)-noradrenaline-induced contractile response; format: functional; details: read-out: pA2 (converted)
T3 sequence (P23944 whole entry): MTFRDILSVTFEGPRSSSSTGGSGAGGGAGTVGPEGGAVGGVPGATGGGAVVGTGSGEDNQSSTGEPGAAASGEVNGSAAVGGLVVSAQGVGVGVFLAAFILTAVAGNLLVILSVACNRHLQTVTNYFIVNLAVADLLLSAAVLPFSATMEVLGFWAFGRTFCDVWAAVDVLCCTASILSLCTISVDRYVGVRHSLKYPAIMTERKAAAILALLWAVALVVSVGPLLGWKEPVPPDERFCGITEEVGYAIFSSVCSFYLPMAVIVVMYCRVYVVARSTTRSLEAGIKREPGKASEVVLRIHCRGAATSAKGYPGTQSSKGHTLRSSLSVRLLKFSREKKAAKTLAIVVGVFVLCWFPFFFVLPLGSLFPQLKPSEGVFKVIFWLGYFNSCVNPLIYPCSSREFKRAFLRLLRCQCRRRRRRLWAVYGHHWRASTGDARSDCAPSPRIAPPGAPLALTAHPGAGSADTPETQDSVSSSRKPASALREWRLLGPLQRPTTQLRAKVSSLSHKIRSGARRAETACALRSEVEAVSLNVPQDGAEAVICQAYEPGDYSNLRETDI

[7] = biological target: T4, Alpha-1B adrenergic receptor (Homo sapiens, UniProt P35368); assay: Displacement of [125I-HEAT from human alpha1B-adrenoreceptor expressed in CHOK1 cell membranes incubated for 60 mins
T4 sequence (P35368 whole entry): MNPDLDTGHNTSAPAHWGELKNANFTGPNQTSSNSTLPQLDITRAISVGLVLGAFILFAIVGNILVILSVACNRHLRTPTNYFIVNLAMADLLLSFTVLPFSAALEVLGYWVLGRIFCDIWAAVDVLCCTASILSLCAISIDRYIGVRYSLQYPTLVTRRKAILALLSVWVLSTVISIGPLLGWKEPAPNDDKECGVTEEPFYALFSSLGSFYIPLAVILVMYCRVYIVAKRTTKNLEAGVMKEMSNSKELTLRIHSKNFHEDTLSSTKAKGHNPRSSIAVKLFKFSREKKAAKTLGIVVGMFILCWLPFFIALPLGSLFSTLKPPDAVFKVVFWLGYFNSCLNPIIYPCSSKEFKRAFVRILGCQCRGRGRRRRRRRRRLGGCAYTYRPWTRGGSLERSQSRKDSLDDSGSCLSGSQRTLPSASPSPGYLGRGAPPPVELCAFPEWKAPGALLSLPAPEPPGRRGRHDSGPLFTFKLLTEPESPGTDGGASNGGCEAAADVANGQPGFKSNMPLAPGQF

[8] = biological target: T5, Alpha-1D adrenergic receptor (Homo sapiens, UniProt P25100); assay: Displacement of [125I-HEAT from human alpha1D-adrenoreceptor expressed in CHOK1 cell membranes incubated for 60 mins
T5 sequence (P25100 whole entry): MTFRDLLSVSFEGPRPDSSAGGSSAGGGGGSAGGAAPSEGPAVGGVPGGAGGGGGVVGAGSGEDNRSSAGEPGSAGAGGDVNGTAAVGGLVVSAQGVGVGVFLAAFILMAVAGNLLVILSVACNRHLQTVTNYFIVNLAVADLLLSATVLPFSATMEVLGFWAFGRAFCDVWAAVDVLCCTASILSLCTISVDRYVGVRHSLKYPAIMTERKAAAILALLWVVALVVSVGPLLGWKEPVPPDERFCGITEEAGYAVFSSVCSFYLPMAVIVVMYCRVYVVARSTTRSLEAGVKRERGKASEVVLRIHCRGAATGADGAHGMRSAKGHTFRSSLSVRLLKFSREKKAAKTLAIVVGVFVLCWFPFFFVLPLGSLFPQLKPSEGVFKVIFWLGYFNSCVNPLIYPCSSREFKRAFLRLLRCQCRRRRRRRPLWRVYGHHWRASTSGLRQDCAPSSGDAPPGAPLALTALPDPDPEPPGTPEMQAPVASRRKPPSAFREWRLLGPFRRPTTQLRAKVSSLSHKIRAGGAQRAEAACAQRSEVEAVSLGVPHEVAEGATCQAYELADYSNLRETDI

Row | Compound | Activity [1] | Activity [2] | Activity [3] | Kb [4] | Kb [5] | Kb [6] | Ki [7] | Ki [8]
1 | COC(=O)Cc1ccc(OCC(O)CN2CCN(c3ccc(C)c(C)c3)CC2)cc1 (stereo not drawn) | 8.9% | 28.4% | 70.2% | – | – | – | – | –
2 | COC(=O)Cc1ccc(OCC(O)CN2CCN(c3ccc(OC)cc3)CC2)cc1 (stereo not drawn) | 6.3% | 7% | 15.8% | – | – | – | – | –
3 | COC(=O)Cc1ccc(OCC(O)CN2CCN(c3ccc(Br)cc3)CC2)cc1 (stereo not drawn) | 7.9% | 16.6% | 43.5% | – | – | – | – | –
4 | COC(=O)Cc1ccc(OC[C@H](O)CN2CCN(c3cc(C)ccc3C)CC2)cc1 | – | – | – | 0.0631 µM | 0.447 µM | 0.038 µM | – | –
5 | COC(=O)Cc1ccc(OCC(O)CN2CCN(c3ccccc3C)CC2)cc1 (stereo not drawn) | 27.3% | 62.3% | 99.3% | 0.49 µM | 0.324 µM | 0.02 µM | – | –
6 | COC(=O)Cc1ccc(OCC(O)CN2CCN(c3ccc(C)c(Cl)c3)CC2)cc1 (stereo not drawn) | 19.5% | 25.9% | 38.7% | – | – | – | – | –
7 | CCOc1cccc(N2CCN(CC(O)COc3ccc(CC(=O)OC)cc3)CC2)c1 (stereo not drawn) | 6.1% | 10.2% | 14.9% | – | – | – | – | –
8 | COC(=O)Cc1ccc(OCC(O)CN2CCN(c3ccc(C)cc3)CC2)cc1 (stereo not drawn) | 15.3% | 28.7% | 56.7% | – | – | – | – | –
9 | COC(=O)Cc1ccc(OCC(O)CN2CCN(c3cccc(C)c3)CC2)cc1 (stereo not drawn) | 14.8% | 36.9% | 63.5% | – | – | – | – | –
10 | COC(=O)Cc1ccc(OCC(O)CN2CCN(c3ccc(C)cc3C)CC2)cc1 (stereo not drawn) | 13.7% | 43.3% | 92.7% | – | – | – | – | –
11 | COC(=O)Cc1ccc(OCC(O)CN2CCN(c3cc(C)ccc3C)CC2)cc1 (stereo not drawn) | 24.3% | 66.2% | 100% | 0.0389 µM | 0.759 µM | 0.0447 µM | – | –
12 | COC(=O)Cc1ccc(OCC(O)CN2CCN(c3cc(C)cc(C)c3)CC2)cc1 (stereo not drawn) | 5.8% | 18.6% | 61.4% | – | – | – | – | –
13 | COC(=O)Cc1ccc(OCC(O)CN2CCN(c3cccc(OC)c3)CC2)cc1 (stereo not drawn) | 13% | 23.7% | 39.8% | – | – | – | – | –
14 | COC(=O)Cc1ccc(OC[C@@H](O)CN2CCN(c3cc(C)ccc3C)CC2)cc1 | – | – | – | 0.0302 µM | 0.269 µM | 0.0155 µM | – | –
15 | COC(=O)Cc1ccc(OCC(O)CN2CCN(c3cccc(C)c3C)CC2)cc1 (stereo not drawn) | 12.5% | 43.3% | 81.7% | – | – | – | – | –
16 | COC(=O)Cc1ccc(OCC(O)CN2CCN(c3ccccc3OC)CC2)cc1 (stereo not drawn) | 27.6% | 71.1% | 100% | 0.148 µM | 0.603 µM | 0.0776 µM | – | –
17 | COC(=O)Cc1ccc(OCC(O)CN2CCN(c3cc(Cl)c(OC)cc3OC)CC2)cc1 (stereo not drawn) | 8.2% | 20.4% | 46.1% | – | – | – | – | –
18 | COC(=O)Cc1ccc(OCC(O)CN2CCN(c3ccccc3Cl)CC2)cc1 (stereo not drawn) | 29% | 58.7% | 98.3% | – | – | – | – | –
19 | COc1ccccc1N1CCN(CC(O)COc2cccc3ccccc23)CC1 (stereo not drawn) [NAFTOPIDIL] | 25.1% | 86.9% | 97.8% | – | – | – | 0.02 µM | 0.0012 µM
